From ChEMBL document CHEMBL1155606, “Stolonic acids A and B, new cytotoxic cyclic peroxides from an Indian Ocean ascidian Stolonica species” (J Nat Prod, 2000)
Converted amounts (≈) assume the structure as drawn.

How the values were obtained:
[1] = Cytotoxicity against human LOX cells after 48 hrs; format: functional, cell-based
[2] = tested on: OVCAR-3; experiment: Cytotoxicity against human OVCAR-3 cells after 48 hrs; format: functional, cell-based; settings: OVCAR-3, 48 h

SMILES: CCCC/C=C/C=C/CCCCCCCC[C@@H]1CC[C@@H]([C@@H]2CC[C@@H](CC(=O)O)OO2)O1 [STOLONIC ACID A]
- IC50 [1]: 0.05 µg/mL (≈ 0.115 µM)
- IC50 [2]: 0.1 µg/mL (≈ 0.229 µM)

SMILES: CCCC/C=C\C=C/CCCCCCCC[C@@H]1CC[C@@H]([C@@H]2CC[C@@H](CC(=O)O)OO2)O1 [STOLONIC ACID B]
- IC50 [1]: 0.05 µg/mL (≈ 0.115 µM)
- IC50 [2]: 0.1 µg/mL (≈ 0.229 µM)
